Measured values: patent US20260069534A1, “ORAL DELIVERY OF ACTIVE COMPOUNDS FOR TREATING GLYCOGEN STORAGE DISEASES” (LYOTROPIC DELIVERY SYSTEMS LTD., priority 2022, published 2026)

What was measured:
[1] = Tissue penetration / distribution in APBD model mice (LC-MS/MS); format: in vivo
Procedure: FIGS. 8A-8B show tissue penetration test results in APBD model mice for Compound GHF-201 in non-formulated form (FIG. 8A) and formulated in LDS-C formulation (FIG. 8B). For pharmacokinetic analysis, 100 μl serum as well as brain, kidney, hind limb quad muscle, heart, liver, and spleen tissues were collected, homogenized, and extracted with acetonitrile following established guidelines (Kapetanovic et al, 2006). Calibration curves were made with 0, 1, 10, 100, and 1,000 ng/ml GHF-201 in 1 mg/ml solutions of 4-tert-butyl-2-(4H-1,2,4-triazol-4-yl) phenol (ChemBridge) as internal standard (IS). Tissue samples were then dissolved in 1 mg/ml IS solutions and spiked with 0-1,000 ng/ml GHF-201 to generate standard curves from which tissue levels of GHF201 were determined. Samples were analyzed by the LC-MS/MS Sciex Triple Quad™ 5500 mass spectrometer.
Gbeys/ys mice injected subcutaneously with 250 mg/kg GHF-201 were sacrificed 30, 60, 90, and 210 min post injection, and the indicated tissues were removed, as well as 100 μL of serum drawn. […] Results obtained from n=3 mice at each time point.
The distribution and kinetic parameters of GHF-201 was assessed in different tissues.

[2] = Pharmacokinetics, 3-day oral dose escalation study in APBD patients; format: in vivo, human; details: for Cmax: human, plasma, oral, 340 mg, per os in formulation LDS-C, 170, 255, 340 mg on days 1, 2, 3
Procedure: (§1) Compound GHF-201 was administered to APBD modeling mice as a 5% DMSO solution, IV injected twice a week at a dose of 250 mg/kg, equivalent to a daily dose of 70 mg/kg. Daily injection was avoided due to the relatively long duration of treatment (6 months), which might have led to excessive scarring. Following positive results in the murine model, compound GHF-201 was administered to two APBD patients as a part of a 3-day oral dose escalation study, during which clinical safety and pharmacokinetic profiles were determined.
Blood was drawn during three consecutive days according to the following regime—pre-administration and 0.5 h, 1 h. 1.5 h, 2 h, and 4 h post-administration. Compound GHF-201 was administered as formulation LDS-C. 7.15% Compound GHF-201. Active ingredient doses were 170 mg on the first day, 255 mg on the second day, and 340 mg on the third day.
Following blood drawing, plasma was separated by centrifugation (up to 1 h from drawing) at 2000 g for 10 min. at 4° C. Compound GHF-201 levels in plasma (supernatant) samples were determined by LC-Mass Spectrometry (LC-MS/MS) using Sciex Triple Quad™ 5500 mass spectrometer. 100 μl of plasma were collected and extracted in 500 μl acetonitrile solution (acetonitrile/water 1:1 v/v). Calibration curves were made with 0.1, 10, 100, and 1000 ng/ml compound GHF-201 in 1 mg/ml solutions of 4-tert-butyl-2-(4H-1,2,4-triazol-4-yl) phenol (ChemBridge) as internal standard (IS). The samples were dissolved in 1 mg/ml IS solutions and spiked with 0-1000 ng/ml of compound GHF-201 to generate standard curves from which plasma levels of compound GHF-201 were determined.

[3] = Pharmacokinetic profile in APBD modeling mice, IV 250 mg/kg; details: in vivo
Procedure: FIGS. 9A-9C are pharmacokinetic profiles of Compound GHF-201 administered per os in formulation LDS-C to APBD patient 1 (FIG. 9A) and IV at 250 mg/kg to n=3 APBD modeling mice (FIG. 9B). Active ingredient doses in days 1, 2, and 3 were 170 mg, 255 mg, and 340 mg, respectively. Encircled in A, values blown up in FIG. 9C.
as §1
Following the FDA human equivalent dose calculation, mouse dose can be converted to human dose by dividing by 12. […] Divided by 12, 4,700 ng/mL yields 392 ng/mL. […] Therefore, it was assumed that a human equivalent, or higher, dose in patients is at least as effective as the equivalent dose in mice.

mice = experiment: 14-day safety study in mice; format: in vivo; details: 14-day study
Procedure: Pharmacokinetically, subcutaneously injected in mice, compound GHF-201 had high dwell time and persistence (>3 h) in the liver, intermediate levels and persistence in brain and heart (1 h) and negligible distribution to the muscle. […] The ameliorative effect on extension reflex is especially important since the patient correlate is pyramidal tetraparesis or upper motor neuron signs which are one of the main neurological deficiencies in APBD patients.

[4] = subcutaneously injected in mice

COCCN(Cc1sccc1C)C(=O)c1cc(C)[nH]c(=O)c1 [Compound GHF-201]
bioavailability increase in all tissues ([1]; orally administered in formulation vs subcutaneous injections of GHF-201 in solution, APBD model mice): at least three-fold
distribution to the muscle [1, 4]: negligible
dwell time and persistence in the liver [1, 4]: > 3 h
persistence in brain and heart [1, 4]: 1 h
Cmax ([2]; patient 1): 894 ng/mL
Cmax ([2]; patient 2): 883 ng/mL
Areas Under the Curve (AUC) ([2]; patients 1 and 2, sum of trapezoids): correlated with the level of compound GHF-201 administered
pre-administration levels in the plasma ([2]; patients, three consecutive days): increased every consecutive day
Human-equivalent Cmax (mouse Cmax divided by 12) ([3]; intravenous, 250 mg/kg, FDA human equivalent dose calculation): 392 ng/mL
Cmax ([3]; mouse, APBD modeling mice, IV 250 mg/kg): 4700 ng/mL
safety (mice): safe
